# Results: ChEMBL document CHEMBL5543137, “Design and Synthesis of Novel Ultralong-Acting Peptides as EDP-EBP Interaction Inhibitors for Pulmonary Fibrosis Treatment” (J Med Chem, 2024)
# Calls of active or inactive are those of the source. No cut-off for these calls is given here. Starred links: 1 amine or outer side, 2 acyl side, 3 side chain; linkers in the order of their positions; H or OH if unused. Non-standard residues stand in square brackets, D forms with d. Residues, ends and D or L forms follow the SMILES beside them. *: point of attachment. C20 diacid = O=C(O)CCCCCCCCCCCCCCCCCCC(=O)*; γGlu = O=C(O)[C@H](CCC(=O)[*:2])N[*:1]; Iva = CC[C@](C)(N)C(=O)O; PEG2 = NCCOCCOCCC(=O)O
# Key:
# Mus musculus [1] = experiment: Antifibrotic activity against BLM-induced C57BL/6 mouse pulmonary fibrosis model assessed as reduction in Ctgf gene expression at 240 ug/kg/day, sc administered for 2 weeks starting from 7 days post BLM induction and measured after 21 days post BLM induction by ScRNA-sequencing analysis; format: functional, organism-based; details: dose 240.0 µg/kg/day
# TC-1 [2] = experiment: Antifibrotic activity against BLM-induced mouse TC-1 cells assessed as reduction in FN expression at 10 uM after 24 hrs by Western blotting analysis; format: functional, cell-based
# Mus musculus [3] = experiment: Antifibrotic activity against BLM-induced C57BL/6 mouse pulmonary fibrosis model assessed as reduction in Dcn gene expression at 240 ug/kg/day, sc administered for 2 weeks starting from 7 days post BLM induction and measured after 21 days post BLM induction by ScRNA-sequencing analysis; format: functional, organism-based; details: dose 240.0 µg/kg/day
# Mus musculus [4] = experiment: Antifibrotic activity against BLM-induced C57BL/6 mouse pulmonary fibrosis model assessed as reduction in fibrotic accumulation in lungs at 150 ug/kg, sc administered for 2 weeks starting from 7 days post BLM induction and measured after 21 days post BLM induction by immunohistochemical staining based assay; format: functional, organism-based; details: dose 150.0 µg/kg
# Mus musculus [5] = experiment: Antifibrotic activity against BLM-induced sc dosed C57BL/6 mouse pulmonary fibrosis model assessed as reversal of lung indices administered for 2 weeks starting from 7 days post BLM induction and measured after 21 days post BLM induction; format: functional, organism-based; details: dose 30-240 µg/kg
# RAW264.7 [6] = experiment: Effect on cell proliferation in mouse RAW264.7 cells at 10 uM after 24 hrs by flow cytometry analysis; format: functional, cell-based
# TC-1 [7] = experiment: Antifibrotic activity against BLM-induced mouse TC-1 cells assessed as reduction in MMP-12 expression at 10 uM after 24 hrs by Western blotting analysis; format: functional, cell-based
# Mus musculus [8] = experiment: Antifibrotic activity against BLM-induced C57BL/6 mouse pulmonary fibrosis model assessed as reduction in lung Fn expression at 240 ug/kg/day, sc administered for 2 weeks starting from 7 days post BLM induction and measured after 21 days post BLM induction by Western blotting analysis; format: functional, organism-based; details: dose 240.0 µg/kg/day
# RAW264.7 [9] = experiment: Antifibrotic activity against BLM-induced mouse RAW264.7 cells assessed as upregulation of MMP-12 expression at 10 uM incubated for 6 to 24 hrs by ELISA; format: functional, cell-based; details: time 6-24 hrs
# RAW264.7 [10] = experiment: Induction of cell migration in mouse RAW264.7 cells at 10 uM by DAPI staining based assay; format: functional
# Mus musculus [11] = experiment: Antifibrotic activity against BLM-induced C57BL/6 mouse pulmonary fibrosis model assessed as reduction in Col1a1 gene expression at 240 ug/kg/day, sc administered for 2 weeks starting from 7 days post BLM induction and measured after 21 days post BLM induction by ScRNA-sequencing analysis; format: functional, organism-based; details: dose 240.0 µg/kg/day
# Mus musculus [12] = experiment: Antifibrotic activity against BLM-induced C57BL/6 mouse pulmonary fibrosis model assessed as downregulation of Acta2 gene expression in lung tissue at 150 ug/kg, sc administered for 2 weeks starting from 7 days post BLM induction and measured after 21 days post BLM induction by RT-qPCR assay; format: functional, organism-based; details: dose 150.0 µg/kg
# [13] = Tmax in Sprague-Dawley rat serum at 0.12 mg/kg, sc administered as single dose measured upto 10 days by LC-MS/MS method; format: ADME, organism-based; details: time < 10 day
# A549 [14] = experiment: Inhibition of EBP signaling pathway in TGFalpha induced human A549 cells assessed as reduction in PI3K phosphorylation at 10 uM incubated for 24 hrs by Western blotting analysis; format: cell-based
# RAW264.7 [15] = experiment: Antifibrotic activity against BLM-induced mouse RAW264.7 cells assessed as upregulation of MMP-12 protein expression at 10 uM incubated for 6 to 24 hrs by Western blotting analysis; format: functional, cell-based; details: time 6-24 hrs
# Mus musculus [16] = experiment: Antifibrotic activity against BLM-induced C57BL/6 mouse pulmonary fibrosis model assessed as reduction in alpha-SMA expression at 240 ug/kg/day, sc administered for 2 weeks starting from 7 days post BLM induction and measured after 21 days post BLM induction in presence of Clo-Lip; format: functional, organism-based; details: dose 240.0 µg/kg/day
# Mus musculus [17] = experiment: Antifibrotic activity against BLM-induced C57BL/6 mouse pulmonary fibrosis model assessed as reduction in lung vimentin expression at 240 ug/kg/day, sc administered for 2 weeks starting from 7 days post BLM induction and measured after 21 days post BLM induction by Western blotting analysis; format: functional, organism-based; details: dose 240.0 µg/kg/day
# [18] = Half-life in Sprague-Dawley rat serum at 0.12 mg/kg, sc administered as single dose measured upto 10 days by LC-MS/MS method; format: ADME, organism-based; details: time < 10 day
# Mus musculus [19] = experiment: Antifibrotic activity against BLM-induced C57BL/6 mouse pulmonary fibrosis model assessed as reduction in MMP-12 expression at 240 ug/kg/day, sc administered for 2 weeks starting from 7 days post BLM induction and measured after 21 days post BLM induction in presence of GM6001; format: functional, organism-based; details: dose 240.0 µg/kg/day
# Mus musculus [20] = experiment: Antifibrotic activity against BLM-induced C57BL/6 mouse pulmonary fibrosis model assessed as reduction in Col1a2 gene expression at 240 ug/kg/day, sc administered for 2 weeks starting from 7 days post BLM induction and measured after 21 days post BLM induction by ScRNA-sequencing analysis; format: functional, organism-based; details: dose 240.0 µg/kg/day
# Mus musculus [21] = experiment: Antifibrotic activity against BLM-induced C57BL/6 mouse pulmonary fibrosis model assessed as reduction in Eln gene expression at 240 ug/kg/day, sc administered for 2 weeks starting from 7 days post BLM induction and measured after 21 days post BLM induction by ScRNA-sequencing analysis; format: functional, organism-based; details: dose 240.0 µg/kg/day
# TC-1 [22] = experiment: Inhibition of EBP signaling pathway in TGFalpha induced mouse TC-1 cells assessed as reduction in PI3K phosphorylation at 10 uM incubated for 24 hrs by Western blotting analysis; format: cell-based
# A549 [23] = experiment: Antifibrotic activity against BLM-induced human A549 cells assessed as reduction in MMP-12 expression at 10 uM after 24 hrs by Western blotting analysis; format: functional, cell-based
# A549 [24] = experiment: Antifibrotic activity against BLM-induced human A549 cells assessed as reduction in FN expression at 10 uM after 24 hrs by Western blotting analysis; format: functional, cell-based
# Mus musculus [25] = experiment: Antifibrotic activity against BLM-induced C57BL/6 mouse pulmonary fibrosis model assessed as reduction in Timp1 gene expression at 240 ug/kg/day, sc administered for 2 weeks starting from 7 days post BLM induction and measured after 21 days post BLM induction by ScRNA-sequencing analysis; format: functional, organism-based; details: dose 240.0 µg/kg/day
# [26] = Half life in cynomolgus monkey at 0.06 mg/kg, sc administered as single dose measured upto 30 days by LC-MS/MS method; format: ADME, organism-based, Macaca fascicularis; details: in vivo, time < 30 day
# RAW264.7 [27] = experiment: Antifibrotic activity against BLM-induced mouse RAW264.7 cells assessed as upregulation of MMP-12 mRNA expression at 10 uM incubated for 6 to 24 hrs by RT-qPCR analysis; format: functional, cell-based; details: time 6-24 hrs
# Mus musculus [28] = experiment: Antifibrotic activity against BLM-induced C57BL/6 mouse pulmonary fibrosis model assessed as downregulation of Timp1 gene expression in lung tissue at 150 ug/kg, sc administered for 2 weeks starting from 7 days post BLM induction and measured after 21 days post BLM induction by RT-qPCR assay; format: functional, organism-based; details: dose 150.0 µg/kg
# A549 [29] = experiment: Antifibrotic activity against TNFalpha-induced human A549 cells assessed as downregulation of Fn gene expression level at 10 uM incubated for 24 hrs by RT-qPCR analysis; format: functional, cell-based
# A549 [30] = experiment: Antifibrotic activity against TNFalpha-induced human A549 cells assessed as downregulation of vimentin gene expression level at 10 uM incubated for 24 hrs by RT-qPCR analysis; format: functional, cell-based
# RAW264.7 [31] = experiment: Antifibrotic activity against BLM-induced mouse RAW264.7 cells assessed as downregulation in TIMP-1 expression at 10 uM after 24 hrs by Western blotting analysis; format: functional, cell-based
smiles,measurement,setting,value
CC[C@](C)(NC(=O)[C@@H](NC(=O)CCOCCOCCNC(=O)CCOCCOCCNC(=O)CC[C@H](NC(=O)CCCCCCCCCCCCCCCCCCC(=O)O)C(=O)O)C(C)C)C(=O)NCC(=O)N[C@@H](CO)C(=O)N1CCC[C@H]1C(=O)N[C@@H](CO)C(=O)N[C@@H](C)C(=O)N[C@@H](CCC(N)=O)C(=O)N[C@@H](CCC(=O)O)C(=O)N[C@@H](CCC(=O)O)C(=O)N[C@@H](C)C(=O)N[C@@H](CO)C(=O)N1CCC[C@H]1C(=O)N[C@@H](C)C(N)=O ({C20 diacid-γGlu-PEG2-PEG2}-V[Iva]GSPSAQEEASPA-NH2),Activity,Mus musculus [1],Active
same,Activity,TC-1 [2],Active
same,Activity,Mus musculus [3],Active
same,Activity,Mus musculus [4],Active
same,Activity,Mus musculus [5],Dose-Dependent Effect
same,Activity,RAW264.7 [6],inactive
same,Activity,TC-1 [7],inactive
same,Activity,Mus musculus [8],Active
same,Activity,RAW264.7 [9],Active
same,Activity,RAW264.7 [10],Active
same,Activity,Mus musculus [11],Active
same,Activity,Mus musculus [12],Active
same,Tmax,[13],24 h
same,inhibition,A549 [14],Active
same,Activity,RAW264.7 [15],Active
same,Activity,Mus musculus [16],inactive
same,Activity,Mus musculus [17],Active
same,half-life,[18],33 h
same,Activity,Mus musculus [19],inactive
same,Activity,Mus musculus [20],Active
same,Activity,Mus musculus [21],Active
same,inhibition,TC-1 [22],Active
same,Activity,A549 [23],inactive
same,Activity,A549 [24],Active
same,Activity,Mus musculus [25],Active
same,half-life,[26],257 h
same,Activity,RAW264.7 [27],Active
same,Activity,Mus musculus [28],Active
same,Activity,A549 [29],Active
same,Activity,A549 [30],Active
same,Activity,RAW264.7 [31],Active
